Data reported in US9408856B2, “Topical steroidal formulations” (Temple University—Of The Commonwealth System of Higher …, priority 2008, dated 2016).
Values after ≈ are worked out from the molar mass of the structure shown. “Also recorded” adds a separate entry of the source.

Legend:
[1] = Solubility of fluasterone in solvents and mixed solvents; assay type: physicochemical; conditions: thermodynamic from solid
Procedure: Fluasterone: The solubility of fluasterone in various solvents was determined by adding a specific volume of solvent to a weighed amount of fluasterone in a screw-capped glass vial and shaking vigorously for several minutes. Incremental volumes of solvent were added, followed by vigorous shaking, until the fluasterone completely dissolved.
Alternatively solubility was determined by adding a specific volume of solvent to a weighed amount of fluasterone in a screw-capped glass vial and warming the vial on a hot plate with vigorous shaking until the fluasterone dissolved. Fluasterone was considered soluble if it remained in solution after at least a month at room temperature. Although the above procedures may not give precise solubilities, they should give a close approximation of maximum fluasterone solubility.
In these experiments fluasterone solubility was determined by adding fluasterone to a measured volume of solvent in a screw-capped glass vial. The vial was warned on a hot plate with vigorous shaking until the fluasterone dissolved. Fluasterone was considered soluble if it remained in solution after at least a month at room temperature.

[2] = tested on: TPA-promoted skin tumor promotion; conditions: Schwartz et al. Carcinogenesis 10:1809-1813, 1989; cited from earlier work
[3] = tested on: dexamethasone-induced thymic and splenic atrophy; test: Dexamethasone-induced thymic and splenic atrophy in mice; assay type: in vivo, CD-1 mice; conditions: for protection against DEX-induced thymic and splenic atrophy: CD-1 mice
Procedure: Administration of dehydroepiandrosterone (DHEA, 60 mg/kg, s.c.) for three days partially reverse thymic and splenic atrophy induced by a single injection of dexamethasone (1.6 mg/mouse). In this experiment, the efficacy of either 10 mg/kg or 20 mg/kg DHEA administered s.c. versus the effect of 10 mg/kg or 20 mg/kg fluasterone was investigated.
5% Cremophor (polyethoxylated castor oil; Sigma Chemicals)-95% saline vehicle was prepared using 95 mL of sterile 0.9% NaCl (filtered through sterile 0.22 micron filter) and 5 mL of Cremophor. The Cremophor was dissolved by swirling for approximately 5 minutes.
Dexamethasone solutions were prepared by dissolving dexamethasone (Sigma Chemicals) in absolute ethanol. For example, 71.9 mg of dexamethasone was dissolved in 2.9 mL of absolute ethanol. In order to prevent precipitation, the solution was kept on a hotplate between injections.
For the 10 mg/kg suspension, 25.7 mg of DHEA was weighed out, transferred to a glass scintillation vial, and 10.3 mL of the Cremophor-saline vehicle was added. The DHEA suspension was homogenized using a Tissumizer at 80% power for 30 sec. The Tissumizer was rinsed with 70% ethanol prior to homogenization. After the 10 mg/kg DHEA suspension was homogenized the probe was rinsed 2× with 50 mL of absolute ethanol, then with 50 mL of 70% ethanol, and then dried with sterile gauze. For the 20 mg/kg DHEA suspension, 50.9 mg DHEA was suspended in 10.2 mL of Cremophor-saline vehicle.
19.4 mg of fluasterone was weighed out and transferred to a glass scintillation vial. 7.8 mL of Cremophor-saline vehicle was added to the vial and the contents of the vial were homogenized with a Tissumizer as described previously. Prior to preparing the 20 mg/kg fluasterone, the probe was rinsed 2× with 50 mL of absolute ethanol and 1× with 50 mL of 70% ethanol. For the 20 mg/kg suspension, 47.0 mg was weighed out and transferred to a glass scintillation vial. 9.4 mL of Cremophor-saline vehicle was added to the vial and the contents of the vial were homogenized with a Tissumizer as described above.
Female CD-1 mice, 43-45 days old, were obtained from Charles River Laboratories. The mice were housed 5 per cage in plastic shoebox cages with ad libitum access to Purina chow 5015 and water in the Pharmacy CAF with 12 hr of alternating light and darkness.
Prior to the experiment the mice were weighed, separated into 6 groups containing 5 mice each and treated as follows:
Mice were treated s.c. with 0.1 mL of 5% Cremophor-95% saline for three days. On the third day, the mice were also treated s.c. with 1.6 mg of dexamethasone dissolved in 0.06 mL of absolute. ethanol.
Mice were treated s.c. with 0.25 mg of DHEA suspended in 0.1 mL of 5% Cremophor-95% saline for three days. On the third day, the mice were also treated s.c. with 1.6 mg of dexamethasone dissolved in 0.06 mL of absolute ethanol.
Mice were treated s.c. with 0.5 mg of DHEA suspended in 0.1 mL of 5% Cremophor-95% saline for three days. On the third day, the mice were also treated s.c. with 1.6 mg of dexamethasone dissolved in 0.06 mL of absolute ethanol.
Mice were treated s.c. with 0.25 mg of fluasterone suspended in 0.1 mL of 5% Cremophor-95% saline for three days. On the third day, the mice were also treated s.c. with 1.6 mg of dexamethasone dissolved in 0.06 mL of absolute ethanol.
Mice were treated s.c. with 0.5 mg of fluasterone suspended in 0.1 mL of 5% Cremophor-95% saline for three days. On the third day, the mice were also treated s.c. with 1.6 mg of dexamethasone dissolved in 0.06 mL of absolute ethanol.
All s.c. injections were made in the nape. All mice were lightly anesthetized while the s.c. injections were done.
Twenty-four hours after dexamethasone treatment, the mice were euthanized by an overdose of isoflurane. The spleen and thymus were removed, cleaned of any adventitia, rinsed, blotted on filter paper, and weighed. […]

[4] = Table 12, 10 mg/kg s.c. 3 days + dexamethasone 1.6 mg s.c. on day 3, 24 h after dexamethasone
[5] = Table 12, 20 mg/kg s.c. 3 days + dexamethasone 1.6 mg s.c. on day 3, 24 h after dexamethasone
[6] = Table 14, micronized steroid 10 mg/kg + dexamethasone
[7] = Table 14, micronized steroid 20 mg/kg + dexamethasone
[8] = Table 15, steroid 10 mg/kg in Cremophor-saline + dexamethasone
[9] = Table 16, steroid 5 mg/kg + dexamethasone
[10] = Table 16, steroid 10 mg/kg + dexamethasone

With C[C@]12CCCCC1=CC[C@@H]1[C@@H]2CC[C@]2(C)C(=O)[C@H](F)C[C@@H]12 [Fluasterone, 16α-fluoro-5-androsten-17-one] the solubility ([1]; 10% Tween 80-90% ethanol (v/v), organic solvent or mixture, room temperature) was less than 10000 µg/mL, the solubility ([1]; 15% Tween 80-85% ethanol (v/v), organic solvent or mixture, room temperature) was less than 10000 µg/mL and the solubility ([1]; 20% Tween 80-80% ethanol (v/v), organic solvent or mixture, room temperature) was greater than 10000 µg/mL. It also gave a solubility ([1]; 50% Tween 80-50% ethanol (v/v), organic solvent or mixture, room temperature) greater than 14000 µg/mL, a solubility ([1]; cetyl alcohol:ethanol (10%:90%, w/w), organic solvent or mixture, cetyl alcohol:ethanol (10%:90%, w/w), room temperature) of less than 10000 µg/mL and a solubility ([1]; cetyl alcohol:ethanol (20%:80%, w/w), organic solvent or mixture, cetyl alcohol:ethanol (20%:80%, w/w), room temperature) of less than 12000 µg/mL. The solubility ([1]; cetyl alcohol:ethanol mixtures (20-22% cetyl alcohol), organic solvent or mixture, cetyl alcohol:ethanol mixtures (20-22% cetyl alcohol), summary, room temperature) was greater than 10000 µg/mL, the solubility ([1]; dimethyl sulfoxide (DMSO), organic solvent or mixture) was 3600 µg/mL (≈ 12.4 mM) and the solubility ([1]; ethanol, organic solvent or mixture) was 6600 µg/mL (≈ 22.7 mM). It also gave a solubility ([1]; isopropyl myristate, oil or lipid) of 16000 µg/mL (≈ 55.1 mM), a solubility ([1]; limonene, organic solvent or mixture) of 22600 µg/mL (≈ 77.8 mM) and a solubility ([1]; polyethylene glycol 400 (PEG-400), organic solvent or mixture) of 1100 µg/mL (≈ 3.79 mM). For the same compound, the solubility ([1]; propylene glycol, organic solvent or mixture) was greater than 500 µg/mL, the “lowest reported oral dose which inhibits TPA-promoted skin tumor promotion” value [2] was 200 mg/kg and the “protection against DEX-induced thymic and splenic atrophy” value ([3]; 5 mg/kg) was “significant protection”. The “protection against DEX-induced thymic and splenic atrophy” value ([3]; 10 mg/kg) was “highly active; also recorded: as active as DHEA at 60 mg/kg”, the “potency relative to DHEA in protecting against dexamethasone-induced thymic and splenic atrophy” value ([3]; Example 8, micronized) was “about 6 ×” and the “Body Weight” value [3, 4] was 24.3 ± 1.0. For the same compound, the Spleen wt [3, 4] was 77.5 ± 14.4, the “Spleen wt/BW” value [3, 4] was 3.2 ± 0.5 and the Thymus wt [3, 4] was 60.9 ± 5.2. For the same compound, the “Thymus wt/BW” value [3, 4] was 2.5 ± 0.3, the “Body Weight” value [3, 5] was 25.2 ± 0.6 and the Spleen wt [3, 5] was 73.9 ± 13.8. The “Spleen wt/BW” value [3, 5] was 2.9 ± 0.6, the Thymus wt [3, 5] was 60.8 ± 5.3 and the “Thymus wt/BW” value [3, 5] was 2.4 ± 0.2. The “Body Weight” value [3, 6] was 26.7 ± 3.6, the Spleen wt [3, 6] was 83.0 ± 6.2 and the “Spleen wt/BW” value [3, 6] was 3.1 ± 0.3. The Thymus wt [3, 6] was 68.0 ± 11.5, the “Thymus wt/BW” value [3, 6] was 2.5 ± 0.3 and the “Body Weight” value [3, 7] was 27.2 ± 3.1. The Spleen wt [3, 7] was 83.1 ± 7.9, the “Spleen wt/BW” value [3, 7] was 3.1 ± 0.4 and the Thymus wt [3, 7] was 66.3 ± 9.0. For the same compound, the “Thymus wt/BW” value [3, 7] was 2.4 ± 0.2, the “Body Weight” value [3, 8] was 24.8 ± 0.8 and the Spleen wt [3, 8] was 80.0 ± 7.7. For the same compound, the “Spleen wt/BW” value [3, 8] was 3.2 ± 0.4, the Thymus wt [3, 8] was 67.5 ± 3.9 and the “Thymus wt/BW” value [3, 8] was 2.7 ± 0.2. For the same compound, the “Body Weight” value [3, 9] was 25.7 ± 1.7, the Spleen wt [3, 9] was 62.0 ± 10.2 and the “Spleen wt/BW” value [3, 9] was 2.4 ± 0.3. For the same compound, the Thymus wt [3, 9] was 50.8 ± 10.9, the “Thymus wt/BW” value [3, 9] was 2.0 ± 0.3 and the “Body Weight” value [3, 10] was 25.2 ± 1.4. For the same compound, the Spleen wt [3, 10] was 89.4 ± 12.3, the “Spleen wt/BW” value [3, 10] was 3.5 ± 0.4 and the Thymus wt [3, 10] was 65.6 ± 4.4. The “Thymus wt/BW” value [3, 10] was 2.6 ± 0.2, the “Approximate Potency Compared to Fluasterone in Protecting Against DEX-induced Thymic and Splenic Involution” value ([3]; fluasterone = 1, mice) was 1 and the “rank of activity among steroids tested against DEX-induced thymic and splenic involution” value ([3]; mice) was “most active steroid tested”. For the same compound, the “rank of activity among steroids tested against DEX-induced thymic and splenic involution” value ([3]; mice, listed as fluasterone) was “most potent compound”.
